Source: patent US12435059B2, “AMP-activated protein kinase inhibitors and methods of making and using the same” (The Regents of the University of Colorado, priority 2019, dated 2025)

Tests used:
Assay in all cases: biochemical
Assay type in all cases: binding
468 kinases [1] = target: 468 kinases (Homo sapiens, UniProt O15111); conditions: IKK-alpha; read-out: % Inhibition @ 100 nM
468 kinases [2] = target: 468 kinases (Homo sapiens, UniProt O15146); conditions: MUSK; read-out: % Inhibition @ 100 nM
468 kinases [3] = target: 468 kinases (Homo sapiens, UniProt O43283); conditions: LZK; read-out: % Inhibition @ 100 nM
468 kinases [4] = target: 468 kinases (Homo sapiens, UniProt O60285); conditions: ARK5; read-out: % Inhibition @ 100 nM
468 kinases [5] = target: 468 kinases (Homo sapiens, UniProt O95747); conditions: OSR1; read-out: % Inhibition @ 100 nM
468 kinases [6] = target: 468 kinases (Homo sapiens, UniProt P00519, M351T); conditions: ABL1 (M351T)-phosphorylated; read-out: % Inhibition @ 100 nM
468 kinases [7] = target: 468 kinases (Homo sapiens, UniProt P08922); conditions: ROS1; read-out: % Inhibition @ 100 nM
468 kinases (Homo sapiens, UniProt P08922), sequence (P08922 28-2347 limits assumed): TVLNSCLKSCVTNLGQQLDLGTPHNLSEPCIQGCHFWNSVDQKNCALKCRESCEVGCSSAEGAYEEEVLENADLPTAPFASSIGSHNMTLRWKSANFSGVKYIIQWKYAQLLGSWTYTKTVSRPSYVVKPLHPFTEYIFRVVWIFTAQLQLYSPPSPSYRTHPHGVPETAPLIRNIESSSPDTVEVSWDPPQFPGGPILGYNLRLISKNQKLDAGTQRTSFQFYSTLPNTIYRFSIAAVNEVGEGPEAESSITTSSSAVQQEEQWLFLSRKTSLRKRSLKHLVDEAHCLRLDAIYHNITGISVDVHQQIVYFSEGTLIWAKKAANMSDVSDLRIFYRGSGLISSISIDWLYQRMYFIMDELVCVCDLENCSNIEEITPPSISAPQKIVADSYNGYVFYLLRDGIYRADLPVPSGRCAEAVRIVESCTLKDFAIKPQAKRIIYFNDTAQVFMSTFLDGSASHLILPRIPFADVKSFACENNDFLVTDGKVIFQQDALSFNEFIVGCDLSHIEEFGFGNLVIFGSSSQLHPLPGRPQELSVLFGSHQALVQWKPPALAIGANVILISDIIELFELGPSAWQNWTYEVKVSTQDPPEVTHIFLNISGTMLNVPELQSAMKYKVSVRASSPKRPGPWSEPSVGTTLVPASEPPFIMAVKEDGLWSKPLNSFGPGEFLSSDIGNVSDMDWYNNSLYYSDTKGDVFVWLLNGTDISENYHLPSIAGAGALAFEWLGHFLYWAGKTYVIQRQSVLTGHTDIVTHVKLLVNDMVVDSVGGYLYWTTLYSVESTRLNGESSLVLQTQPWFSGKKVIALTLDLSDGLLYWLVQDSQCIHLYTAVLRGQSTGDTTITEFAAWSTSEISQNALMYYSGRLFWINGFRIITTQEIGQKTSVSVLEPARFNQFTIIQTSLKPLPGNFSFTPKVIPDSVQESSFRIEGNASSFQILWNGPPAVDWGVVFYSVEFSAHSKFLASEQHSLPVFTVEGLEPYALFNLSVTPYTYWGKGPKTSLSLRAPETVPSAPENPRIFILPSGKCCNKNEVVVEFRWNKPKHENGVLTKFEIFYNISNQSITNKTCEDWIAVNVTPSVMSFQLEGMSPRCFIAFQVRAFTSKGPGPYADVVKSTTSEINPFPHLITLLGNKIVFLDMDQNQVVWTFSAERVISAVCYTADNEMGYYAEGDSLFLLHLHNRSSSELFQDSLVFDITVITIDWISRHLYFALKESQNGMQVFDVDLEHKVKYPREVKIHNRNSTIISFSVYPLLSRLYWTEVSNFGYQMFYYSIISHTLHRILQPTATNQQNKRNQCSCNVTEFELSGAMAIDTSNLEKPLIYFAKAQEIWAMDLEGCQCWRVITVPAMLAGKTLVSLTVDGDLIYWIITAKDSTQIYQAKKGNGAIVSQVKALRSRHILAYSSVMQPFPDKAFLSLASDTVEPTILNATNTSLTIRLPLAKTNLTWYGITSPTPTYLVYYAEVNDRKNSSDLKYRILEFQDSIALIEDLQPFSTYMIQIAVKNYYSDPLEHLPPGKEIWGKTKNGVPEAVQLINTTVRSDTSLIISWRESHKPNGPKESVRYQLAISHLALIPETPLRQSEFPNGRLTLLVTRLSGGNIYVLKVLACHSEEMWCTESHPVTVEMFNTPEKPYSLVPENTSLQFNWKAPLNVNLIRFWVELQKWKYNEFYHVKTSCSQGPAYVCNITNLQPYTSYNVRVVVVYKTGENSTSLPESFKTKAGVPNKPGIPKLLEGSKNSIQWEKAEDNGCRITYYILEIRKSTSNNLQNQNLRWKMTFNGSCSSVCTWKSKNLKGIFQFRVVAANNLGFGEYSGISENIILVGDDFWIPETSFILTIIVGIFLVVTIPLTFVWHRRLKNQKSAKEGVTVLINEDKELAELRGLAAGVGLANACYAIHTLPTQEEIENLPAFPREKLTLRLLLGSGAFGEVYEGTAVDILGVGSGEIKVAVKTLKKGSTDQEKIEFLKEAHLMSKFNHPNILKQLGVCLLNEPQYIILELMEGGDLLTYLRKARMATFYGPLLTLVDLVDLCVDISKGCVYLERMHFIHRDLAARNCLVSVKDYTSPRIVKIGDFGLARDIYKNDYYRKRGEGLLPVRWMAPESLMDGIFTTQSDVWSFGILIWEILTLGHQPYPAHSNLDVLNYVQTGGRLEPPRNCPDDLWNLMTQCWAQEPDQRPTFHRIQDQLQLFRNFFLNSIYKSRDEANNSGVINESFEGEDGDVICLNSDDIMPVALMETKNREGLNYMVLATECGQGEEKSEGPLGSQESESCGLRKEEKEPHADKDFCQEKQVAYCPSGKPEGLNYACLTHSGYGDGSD

468 kinases [8] = target: 468 kinases (Homo sapiens, UniProt P22694); conditions: PKAC-beta; read-out: % Inhibition @ 100 nM
468 kinases [9] = target: 468 kinases (Homo sapiens, UniProt P36507); conditions: MEK2; read-out: % Inhibition @ 100 nM
468 kinases [10] = target: 468 kinases (Homo sapiens, UniProt P36888, D835V); conditions: FLT3(D835V); read-out: % Inhibition @ 100 nM
468 kinases [11] = target: 468 kinases (Homo sapiens, UniProt P36897); conditions: TGFBR1; read-out: % Inhibition @ 100 nM
468 kinases [12] = target: 468 kinases (Homo sapiens, UniProt P37023); conditions: ACVRL1; read-out: % Inhibition @ 100 nM
468 kinases [13] = target: 468 kinases (Homo sapiens, UniProt P48729); conditions: CSNK1A1; read-out: % Inhibition @ 100 nM
468 kinases [14] = target: 468 kinases (Homo sapiens, UniProt P50613); conditions: CDK7; read-out: % Inhibition @ 100 nM
468 kinases (Homo sapiens, UniProt P50613), sequence (P50613 2-346 limits assumed): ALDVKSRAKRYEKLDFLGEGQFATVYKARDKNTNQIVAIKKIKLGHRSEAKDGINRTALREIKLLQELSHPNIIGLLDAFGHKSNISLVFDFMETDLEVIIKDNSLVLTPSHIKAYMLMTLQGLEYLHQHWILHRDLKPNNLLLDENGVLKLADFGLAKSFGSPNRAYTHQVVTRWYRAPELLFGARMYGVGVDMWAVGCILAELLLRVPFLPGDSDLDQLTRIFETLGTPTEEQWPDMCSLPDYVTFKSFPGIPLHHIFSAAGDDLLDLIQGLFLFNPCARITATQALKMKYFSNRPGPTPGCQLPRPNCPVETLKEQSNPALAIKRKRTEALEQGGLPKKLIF

468 kinases [15] = target: 468 kinases (Homo sapiens, UniProt P68400); conditions: CSNK2A1; read-out: % Inhibition @ 100 nM
468 kinases [16] = target: 468 kinases (Homo sapiens, UniProt P78368); conditions: CSNK1G2; read-out: % Inhibition @ 100 nM
468 kinases [17] = target: 468 kinases (Homo sapiens, UniProt Q04912); conditions: MST1R; read-out: % Inhibition @ 100 nM
468 kinases (Homo sapiens, UniProt Q04912), sequence (Q04912 25-304 limits assumed): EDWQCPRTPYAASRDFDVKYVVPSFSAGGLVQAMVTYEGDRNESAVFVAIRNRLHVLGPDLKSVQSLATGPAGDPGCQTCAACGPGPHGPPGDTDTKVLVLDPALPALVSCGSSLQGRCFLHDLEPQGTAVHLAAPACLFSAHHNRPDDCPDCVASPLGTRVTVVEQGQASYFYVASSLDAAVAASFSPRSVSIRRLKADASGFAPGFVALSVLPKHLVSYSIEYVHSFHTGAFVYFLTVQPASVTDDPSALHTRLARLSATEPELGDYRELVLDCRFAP
468 kinases (Homo sapiens, UniProt Q04912), sequence (Q04912 310-1400 limits assumed): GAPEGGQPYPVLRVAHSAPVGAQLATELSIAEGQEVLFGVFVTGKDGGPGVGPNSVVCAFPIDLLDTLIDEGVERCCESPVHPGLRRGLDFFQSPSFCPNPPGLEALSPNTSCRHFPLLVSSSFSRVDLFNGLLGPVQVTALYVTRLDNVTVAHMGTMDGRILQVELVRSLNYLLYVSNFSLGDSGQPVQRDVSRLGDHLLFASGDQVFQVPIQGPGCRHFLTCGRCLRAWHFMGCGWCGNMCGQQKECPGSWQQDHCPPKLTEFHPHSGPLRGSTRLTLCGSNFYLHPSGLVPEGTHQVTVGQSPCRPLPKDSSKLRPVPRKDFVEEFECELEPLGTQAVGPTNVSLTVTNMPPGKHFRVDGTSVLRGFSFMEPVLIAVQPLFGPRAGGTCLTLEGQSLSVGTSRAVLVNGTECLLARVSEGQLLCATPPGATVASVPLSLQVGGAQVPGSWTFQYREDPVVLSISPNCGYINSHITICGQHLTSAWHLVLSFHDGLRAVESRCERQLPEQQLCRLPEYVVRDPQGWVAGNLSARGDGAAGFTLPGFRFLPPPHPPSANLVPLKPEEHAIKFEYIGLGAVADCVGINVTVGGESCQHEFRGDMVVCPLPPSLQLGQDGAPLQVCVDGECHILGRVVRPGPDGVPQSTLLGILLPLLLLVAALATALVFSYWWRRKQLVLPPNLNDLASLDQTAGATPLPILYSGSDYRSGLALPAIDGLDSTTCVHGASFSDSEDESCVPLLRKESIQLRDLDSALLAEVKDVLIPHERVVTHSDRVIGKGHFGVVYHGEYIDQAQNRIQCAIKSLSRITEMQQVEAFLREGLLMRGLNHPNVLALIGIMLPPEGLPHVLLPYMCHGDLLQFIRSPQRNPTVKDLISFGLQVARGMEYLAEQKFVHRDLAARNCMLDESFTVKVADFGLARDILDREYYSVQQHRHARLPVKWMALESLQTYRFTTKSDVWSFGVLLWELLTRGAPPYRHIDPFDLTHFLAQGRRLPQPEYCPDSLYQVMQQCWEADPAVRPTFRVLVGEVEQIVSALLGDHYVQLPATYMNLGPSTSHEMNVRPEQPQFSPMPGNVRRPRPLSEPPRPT

468 kinases [18] = target: 468 kinases (Homo sapiens, UniProt Q13554); conditions: CAMK2B; read-out: % Inhibition @ 100 nM
468 kinases [19] = target: 468 kinases (Homo sapiens, UniProt Q15208); conditions: NDR1; read-out: % Inhibition @ 100 nM
468 kinases (Homo sapiens, UniProt Q15208), sequence (Q15208 2-465 limits assumed): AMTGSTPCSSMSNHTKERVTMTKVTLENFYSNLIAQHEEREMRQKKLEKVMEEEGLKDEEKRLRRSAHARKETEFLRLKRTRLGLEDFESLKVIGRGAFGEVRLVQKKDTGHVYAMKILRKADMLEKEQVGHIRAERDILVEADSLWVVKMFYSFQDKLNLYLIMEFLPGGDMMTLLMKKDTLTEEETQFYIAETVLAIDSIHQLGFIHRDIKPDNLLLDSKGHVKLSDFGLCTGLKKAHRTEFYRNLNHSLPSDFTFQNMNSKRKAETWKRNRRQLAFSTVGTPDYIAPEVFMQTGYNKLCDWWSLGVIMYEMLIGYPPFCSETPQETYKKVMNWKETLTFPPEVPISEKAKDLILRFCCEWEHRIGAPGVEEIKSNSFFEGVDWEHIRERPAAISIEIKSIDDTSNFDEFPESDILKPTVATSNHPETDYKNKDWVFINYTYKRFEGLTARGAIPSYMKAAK

468 kinases [20] = target: 468 kinases (Homo sapiens, UniProt Q16539); conditions: p38-alpha; read-out: % Inhibition @ 100 nM
468 kinases [21] = target: 468 kinases (Homo sapiens, UniProt Q59H18); conditions: TNNI3K; read-out: % Inhibition @ 100 nM
468 kinases [22] = target: 468 kinases (Homo sapiens, UniProt Q5S007, G2019S); conditions: LRRK2(G2019S); read-out: % Inhibition @ 100 nM
468 kinases [23] = target: 468 kinases (Homo sapiens, UniProt Q96SB4); conditions: SRPK1; read-out: % Inhibition @ 100 nM
468 kinases [24] = target: 468 kinases (Homo sapiens, UniProt Q9BRS2); conditions: RIOK1; read-out: % Inhibition @ 100 nM
468 kinases [25] = target: 468 kinases (Homo sapiens, UniProt Q9BZL6); conditions: PRKD2; read-out: % Inhibition @ 100 nM
468 kinases [26] = target: 468 kinases (Homo sapiens, UniProt Q9HBY8); conditions: SGK2; read-out: % Inhibition @ 100 nM
468 kinases [27] = target: 468 kinases (Homo sapiens, UniProt Q9HC98); conditions: NEK6; read-out: % Inhibition @ 100 nM
468 kinases [28] = target: 468 kinases (Homo sapiens, UniProt Q9UEE5); conditions: DRAK1; read-out: % Inhibition @ 100 nM
468 kinases [29] = target: 468 kinases (Homo sapiens, UniProt Q9UKI8); conditions: TLK1; read-out: % Inhibition @ 100 nM
468 kinases [30] = target: 468 kinases (Homo sapiens, UniProt Q9UQM7); conditions: CAMK2A; read-out: % Inhibition @ 100 nM
468 kinases [31] = target: 468 kinases (Homo sapiens, UniProt Q9Y616); conditions: IRAK3; read-out: % Inhibition @ 100 nM
468 kinases [32] = target: 468 kinases (Plasmodium falciparum, UniProt P61075); conditions: PFPK5 (P.falciparum); read-out: % Inhibition @ 100 nM
468 kinases [33] = target: 468 kinases (Plasmodium falciparum, UniProt P62344); conditions: PFCDPK1 (P.falciparum); read-out: % Inhibition @ 100 nM
468 kinases (Plasmodium falciparum, UniProt P62344), sequence (P62344 2-524 limits assumed): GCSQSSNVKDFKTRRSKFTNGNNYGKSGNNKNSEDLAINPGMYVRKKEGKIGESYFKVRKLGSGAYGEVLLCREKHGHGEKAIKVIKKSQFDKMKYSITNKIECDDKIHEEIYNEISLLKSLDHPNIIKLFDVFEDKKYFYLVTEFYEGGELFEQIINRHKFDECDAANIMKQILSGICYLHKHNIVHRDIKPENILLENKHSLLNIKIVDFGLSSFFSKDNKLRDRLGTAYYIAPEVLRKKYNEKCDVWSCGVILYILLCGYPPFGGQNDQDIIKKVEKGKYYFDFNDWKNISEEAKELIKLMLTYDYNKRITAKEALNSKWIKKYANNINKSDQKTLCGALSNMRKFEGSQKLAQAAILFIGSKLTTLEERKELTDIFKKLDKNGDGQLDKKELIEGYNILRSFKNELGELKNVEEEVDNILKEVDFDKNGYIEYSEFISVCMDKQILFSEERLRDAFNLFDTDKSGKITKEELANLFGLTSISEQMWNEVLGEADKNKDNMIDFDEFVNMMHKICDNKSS

**Q.** Which inhibition at 0.1 µM (468 kinases [1]) does the source give for `CCN(CC)CCNC(=O)c1c(C)[nH]c(/C=C2\C(=O)Nc3ccc(CCO)cc32)c1C` [Compound No. 10, (Z)—N-(2-(Diethylamino)ethyl)-5-((5-(2-hydroxyethyl)-2-oxoindolin-3-ylidene)methyl)-2,4-dimethyl-1H-pyrrole-3-carboxamide] here?
**A.** The inhibition at 0.1 µM was 0%.

**Q.** What about the inhibition at 0.1 µM (468 kinases [2]) of the same compound?
**A.** Its inhibition at 0.1 µM is 28%.

**Q.** What about the inhibition at 0.1 µM (468 kinases [3]) of the same compound?
**A.** Its inhibition at 0.1 µM is 0%.

**Q.** And the inhibition at 0.1 µM (468 kinases [4])?
**A.** The inhibition at 0.1 µM was 84%.

**Q.** What about the inhibition at 0.1 µM (468 kinases [5]) of the same compound?
**A.** Its inhibition at 0.1 µM is 0%.

**Q.** What about the inhibition at 0.1 µM (468 kinases [6]) of the same compound?
**A.** Its inhibition at 0.1 µM is 24%.

**Q.** What about the inhibition at 0.1 µM (468 kinases [7]) of the same compound?
**A.** Its inhibition at 0.1 µM is 15%.

**Q.** And the inhibition at 0.1 µM (468 kinases [8])?
**A.** The inhibition at 0.1 µM was 0%.

**Q.** What about the inhibition at 0.1 µM (468 kinases [9]) of the same compound?
**A.** Its inhibition at 0.1 µM is 90.4%.

**Q.** And the inhibition at 0.1 µM (468 kinases [10])?
**A.** The inhibition at 0.1 µM was 100%.

**Q.** What about the inhibition at 0.1 µM (468 kinases [11]) of the same compound?
**A.** The inhibition at 0.1 µM was 11%.

**Q.** And the inhibition at 0.1 µM (468 kinases [12])?
**A.** Its inhibition at 0.1 µM is 0%.

**Q.** What about the inhibition at 0.1 µM (468 kinases [13]) of the same compound?
**A.** The inhibition at 0.1 µM was 14%.

**Q.** What about the inhibition at 0.1 µM (468 kinases [14]) of the same compound?
**A.** The inhibition at 0.1 µM was 86%.

**Q.** And the inhibition at 0.1 µM (468 kinases [15])?
**A.** The inhibition at 0.1 µM was 0%.

**Q.** And the inhibition at 0.1 µM (468 kinases [16])?
**A.** The inhibition at 0.1 µM was 0%.

**Q.** What about the inhibition at 0.1 µM (468 kinases [17]) of the same compound?
**A.** Its inhibition at 0.1 µM is 5%.

**Q.** What about the inhibition at 0.1 µM (468 kinases [18]) of the same compound?
**A.** Its inhibition at 0.1 µM is 0%.

**Q.** What about the inhibition at 0.1 µM (468 kinases [19]) of the same compound?
**A.** The inhibition at 0.1 µM was 34%.

**Q.** What about the inhibition at 0.1 µM (468 kinases [20]) of the same compound?
**A.** Its inhibition at 0.1 µM is 0%.

**Q.** And the inhibition at 0.1 µM (468 kinases [21])?
**A.** The inhibition at 0.1 µM was 0%.

**Q.** And the inhibition at 0.1 µM (468 kinases [22])?
**A.** The inhibition at 0.1 µM was 89%.

**Q.** What about the inhibition at 0.1 µM (468 kinases [23]) of the same compound?
**A.** Its inhibition at 0.1 µM is 60%.

**Q.** What about the inhibition at 0.1 µM (468 kinases [24]) of the same compound?
**A.** The inhibition at 0.1 µM was 88%.

**Q.** And the inhibition at 0.1 µM (468 kinases [25])?
**A.** Its inhibition at 0.1 µM is 0%.

**Q.** And the inhibition at 0.1 µM (468 kinases [26])?
**A.** Its inhibition at 0.1 µM is 0%.

**Q.** What about the inhibition at 0.1 µM (468 kinases [27]) of the same compound?
**A.** Its inhibition at 0.1 µM is 19%.

**Q.** And the inhibition at 0.1 µM (468 kinases [28])?
**A.** Its inhibition at 0.1 µM is 71%.

**Q.** What about the inhibition at 0.1 µM (468 kinases [29]) of the same compound?
**A.** Its inhibition at 0.1 µM is 2%.

**Q.** What about the inhibition at 0.1 µM (468 kinases [30]) of the same compound?
**A.** Its inhibition at 0.1 µM is 6%.

**Q.** What about the inhibition at 0.1 µM (468 kinases [31]) of the same compound?
**A.** The inhibition at 0.1 µM was 0%.

**Q.** What about the inhibition at 0.1 µM (468 kinases [32]) of the same compound?
**A.** The inhibition at 0.1 µM was 0%.

**Q.** And the inhibition at 0.1 µM (468 kinases [33])?
**A.** The inhibition at 0.1 µM was 0%.

**Q.** Which results are given for `CCN(CC)CCNC(=O)c1c(C)[nH]c(/C=C2\C(=O)Nc3ccc(CCC(N)=O)cc32)c1C` [Compound No. 16, (Z)-5-((5-(3-Amino-3-oxopropyl)-2-oxoindolin-3-ylidene)methyl)-N-(2-(diethylamino)ethyl)-2,4-dimethyl-1H-pyrrole-3-carboxamide]?
**A.** inhibition at 0.1 µM (468 kinases [1]): 20%; inhibition at 0.1 µM (468 kinases [2]): 15%; inhibition at 0.1 µM (468 kinases [3]): 61%; inhibition at 0.1 µM (468 kinases [4]): 71%; inhibition at 0.1 µM (468 kinases [5]): 47%; inhibition at 0.1 µM (468 kinases [6]): 22%; inhibition at 0.1 µM (468 kinases [7]): 0%; inhibition at 0.1 µM (468 kinases [8]): 13%; inhibition at 0.1 µM (468 kinases [9]): 83%; inhibition at 0.1 µM (468 kinases [10]): 100%; inhibition at 0.1 µM (468 kinases [11]): 1%; inhibition at 0.1 µM (468 kinases [12]): 0%; inhibition at 0.1 µM (468 kinases [13]): 27%; inhibition at 0.1 µM (468 kinases [14]): 80%; inhibition at 0.1 µM (468 kinases [15]): 78%; inhibition at 0.1 µM (468 kinases [16]): 3%; inhibition at 0.1 µM (468 kinases [17]): 0%; inhibition at 0.1 µM (468 kinases [18]): 10%; inhibition at 0.1 µM (468 kinases [19]): 20%; inhibition at 0.1 µM (468 kinases [20]): 0%; inhibition at 0.1 µM (468 kinases [21]): 5%; inhibition at 0.1 µM (468 kinases [22]): 88%; inhibition at 0.1 µM (468 kinases [23]): 78%; inhibition at 0.1 µM (468 kinases [24]): 87%; inhibition at 0.1 µM (468 kinases [25]): 16%; inhibition at 0.1 µM (468 kinases [26]): 14%; inhibition at 0.1 µM (468 kinases [27]): 0%; inhibition at 0.1 µM (468 kinases [28]): 78%; inhibition at 0.1 µM (468 kinases [29]): 0%; inhibition at 0.1 µM (468 kinases [30]): 45%; inhibition at 0.1 µM (468 kinases [31]): 100%; inhibition at 0.1 µM (468 kinases [32]): 40%; inhibition at 0.1 µM (468 kinases [33]): 14%
